{
  "source": "patent EP2954896A1",
  "about": "“Small molecule inhibitors of the E3 Ligase Skp2 in depression and other diseases” (Max-Planck-Gesellschaft zur Förderung der Wissenschaften …, priority 2014, dated 2015)",
  "key": {"[1]": {"assay": "Forced swim test after acute antidepressant injection in Fkbp51+/+ and Fkbp51-/- mice", "format": "in vivo", "details": "acute injection 10 mgkg-1", "procedure": "The Fkbp51^-/- mouse line was previously generated (Touma C et al. (2011) Biol. Psychiatry 70: 928-936) and fully backcrossed to C57/BI6. […] Hippocampus and prefrontal cortex were extracted. […] Male mice (age 10-16 weeks) were injected intraperitoneally with a single dose of either AMI (10 mg kg^-1) or saline vehicle. […] Another subgroup (WT n=5, KO n=5) was sacrificed, and brain tissue and blood was sampled for analysis of drug concentrations. […] The inventors performed an additional forced swim test administering the antidepressant amitriptyline in FKBP51 WT and FKBP51 KO mice (Fig. 1 B)."}, "autophagy markers": {"test_system": "autophagy markers", "assay": "Autophagy markers in protein extracts of hippocampus and prefrontal cortex after acute antidepressant injection", "format": "in vivo, mice", "details": "10 mgkg-1", "procedure": "Western blot analysis was performed on eluates from ColPs or with protein extracts from cells or tissue. Protein extracts were obtained by lysing cells or tissue (prelysed as described in the paragraph before) in 62.5 mM Tris, 2% SDS and 10% sucrose, supplemented with protease (Sigma, P2714) and phosphatase (Roche, 04906837001) inhibitor cocktail. Samples were sonicated and heated at 95 °C for 5 min. Proteins were separated by SDS-PAGE and electro-transferred onto nitrocellulose membranes. Blots were placed in Tris-buffered saline, supplemented with 0.05% Tween (Sigma, P2287) and 5% non-fat milk for 1 h at room temperature and then incubated with primary antibody (diluted in TBS/0.05% Tween) overnight at 4 °C. The following primary antibodies were used: Beclin1 (1:1000, Cell Signaling, #3495), Atg12 (1:1000, Cell Signaling #2010), LC3B-I/II (1:1000, Cell Signaling, #2775), FLAG (1:7000, Rockland, 600-401-383), FKBP51 (1:1000, Bethyl, A301-430A), Akt (1:1000, Cell Signaling, #4691), pAkt (1:1000, Ser473, T308, 1:1000, Cell Signaling, #4058, #9275), Actin (1:5000, Santa Cruz Biotechnologies, sc-1616), Skp2, myc (Addgene, 19947), GFP (santa cruz biotechnologies, sc-8334), p27 (cell signaling technologies, 3686), pULK,(S757, cell signaling technologies, 6888) APP-CTF (sigma-aldrich, A8717), DNMT1 (1:1000, Imgenex, IMG-261A), phospho-DNMT1 (S154), (1:1000, Abnova, PAB4924), ptau (S622; Santa Cruz Biotechnologies, #sc-16938).\nSubsequently, blots were washed and probed with the respective horseradish peroxidase- or fluorophore-conjugated secondary antibody for 1 h at room temperature. The immuno-reactive bands were visualized either using ECL detection reagent (Millipore, Billerica, MA, USA, WBKL0500) or directly by excitation of the respective fluorophore. Determination of the band intensities were performed with BioRad, ChemiDoc MP, or X-ray-films.\nThe Fkbp51^-/- mouse line was previously generated (Touma C et al. (2011) Biol. Psychiatry 70: 928-936) and fully backcrossed to C57/BI6. […] Hippocampus and prefrontal cortex were extracted."}, "[2]": {"test_system": "autophagy pathway markers", "assay": "Chronic PAR treatment after chronic social defeat stress: autophagy pathway marker protein levels", "format": "in vivo, mice", "details": "effect of deletion of FKBP51", "procedure": "Western blot analysis was performed on eluates from ColPs or with protein extracts from cells or tissue. Protein extracts were obtained by lysing cells or tissue (prelysed as described in the paragraph before) in 62.5 mM Tris, 2% SDS and 10% sucrose, supplemented with protease (Sigma, P2714) and phosphatase (Roche, 04906837001) inhibitor cocktail. Samples were sonicated and heated at 95 °C for 5 min. Proteins were separated by SDS-PAGE and electro-transferred onto nitrocellulose membranes. Blots were placed in Tris-buffered saline, supplemented with 0.05% Tween (Sigma, P2287) and 5% non-fat milk for 1 h at room temperature and then incubated with primary antibody (diluted in TBS/0.05% Tween) overnight at 4 °C. […]"}, "[3]": {"details": "Fkbp51+/+ mice, hippocampus and prefrontal cortex"}},
  "data": [
    {"smiles": "Fc1ccc([C@@H]2CCNC[C@H]2COc2ccc3c(c2)OCO3)cc1", "note": "[PAR, paroxetine]", "values": [
      {"measurement": "time spent struggling, forced swim test", "setting": "[1]; Fkbp51+/+ mice", "result": "increase in the time spent struggling"},
      {"measurement": "time floating (immobility), forced swim test", "setting": "[1]; Fkbp51+/+ mice, versus vehicle", "result": "less time floating"},
      {"measurement": "effect on time floating (immobility), forced swim test", "setting": "[1]; Fkbp51-/- mice", "result": "significantly less pronounced"},
      {"measurement": "effect on time spent struggling, forced swim test", "setting": "[1]; Fkbp51-/- mice", "result": "significantly attenuated"},
      {"measurement": "level of Atg12", "setting": "autophagy markers; [3]", "result": "increased"},
      {"measurement": "level of Beclin1", "setting": "autophagy markers; [3]", "result": "increased"},
      {"measurement": "level of Vps34", "setting": "autophagy markers; [3]", "result": "increased"},
      {"measurement": "phosphorylation of the kinase Akt (pAktS473)", "setting": "autophagy markers; [3]", "result": "evoked dephosphorylation"},
      {"measurement": "protein levels of autophagy markers and pAktS473", "setting": "autophagy markers; Fkbp51-/- mice, either brain region", "result": "no alterations"},
      {"measurement": "effects on autophagy pathway markers Beclin1, Atg12, pAktS473/Akt and LC3BII/I", "setting": "[2]", "result": "abolished"}
    ]}
  ]
}
